Results on five compounds are retold here after paper PMC4755721 (Chemical research in toxicology, 2015).

Series [1] concerns the target T1, P450 2A6 (Homo sapiens, UniProt P11509).
T1 sequence (P11509 1-494): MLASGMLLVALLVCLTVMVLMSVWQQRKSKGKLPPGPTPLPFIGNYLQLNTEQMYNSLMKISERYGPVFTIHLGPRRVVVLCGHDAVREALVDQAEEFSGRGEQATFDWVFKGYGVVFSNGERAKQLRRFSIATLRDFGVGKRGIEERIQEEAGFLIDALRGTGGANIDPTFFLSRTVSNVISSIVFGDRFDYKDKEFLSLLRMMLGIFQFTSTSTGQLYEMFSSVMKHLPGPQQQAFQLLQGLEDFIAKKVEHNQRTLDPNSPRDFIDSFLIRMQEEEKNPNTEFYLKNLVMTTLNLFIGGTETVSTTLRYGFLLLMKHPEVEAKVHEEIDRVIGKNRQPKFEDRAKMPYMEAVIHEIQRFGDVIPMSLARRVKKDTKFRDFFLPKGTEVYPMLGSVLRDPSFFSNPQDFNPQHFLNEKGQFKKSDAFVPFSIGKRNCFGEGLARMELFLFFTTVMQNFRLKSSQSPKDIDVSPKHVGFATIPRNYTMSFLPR
Nature of the series: Oxidation by P450 2A6. The class given is in vitro ADME. Particulars: 50 µM substrate, reconstituted system, LC-MS.

For the next series, the target named is P450 2C9 (Homo sapiens, UniProt P11712). Briefly: Spectral binding titration with P450 2C9.
Sequence of P450 2C9 (P11712 whole entry): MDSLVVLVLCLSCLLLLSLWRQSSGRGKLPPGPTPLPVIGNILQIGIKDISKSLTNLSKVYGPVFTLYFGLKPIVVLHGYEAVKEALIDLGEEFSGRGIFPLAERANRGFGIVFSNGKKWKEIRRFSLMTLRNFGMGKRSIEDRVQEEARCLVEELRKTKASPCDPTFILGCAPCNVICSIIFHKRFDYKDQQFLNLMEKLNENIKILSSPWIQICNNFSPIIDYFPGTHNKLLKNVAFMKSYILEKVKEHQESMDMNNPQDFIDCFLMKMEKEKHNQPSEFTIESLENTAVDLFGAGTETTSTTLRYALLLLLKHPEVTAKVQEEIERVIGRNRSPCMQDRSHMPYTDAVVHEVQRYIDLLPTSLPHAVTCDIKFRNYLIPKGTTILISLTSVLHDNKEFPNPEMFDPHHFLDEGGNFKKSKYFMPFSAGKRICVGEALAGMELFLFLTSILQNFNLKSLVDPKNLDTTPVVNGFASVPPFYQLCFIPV
Series [2] has as its target T1, P450 2A6. Nature of the series: Spectral binding titration with P450 2A6.
The target in the next series is T2, P450 1A2 (Homo sapiens, UniProt P05177).
T2 sequence (P05177 1-516): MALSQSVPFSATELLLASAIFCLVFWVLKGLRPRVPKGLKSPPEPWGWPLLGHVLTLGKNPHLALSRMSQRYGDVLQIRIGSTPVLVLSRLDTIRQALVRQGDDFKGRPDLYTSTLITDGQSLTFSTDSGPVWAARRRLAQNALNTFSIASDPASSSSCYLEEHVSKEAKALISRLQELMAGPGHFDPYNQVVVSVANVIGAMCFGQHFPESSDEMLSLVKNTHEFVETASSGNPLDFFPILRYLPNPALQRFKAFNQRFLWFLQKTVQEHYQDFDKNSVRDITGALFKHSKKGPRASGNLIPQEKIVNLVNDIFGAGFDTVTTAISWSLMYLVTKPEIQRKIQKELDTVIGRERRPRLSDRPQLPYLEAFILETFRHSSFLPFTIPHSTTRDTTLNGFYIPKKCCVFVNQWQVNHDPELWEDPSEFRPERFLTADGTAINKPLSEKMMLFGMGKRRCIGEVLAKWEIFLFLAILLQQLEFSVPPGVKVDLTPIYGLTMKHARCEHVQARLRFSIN
Briefly: Spectral binding titration with P450 1A2.

The next series deals with P450 3A4 (Homo sapiens, UniProt P08684). Briefly: Spectral binding titration with P450 3A4.
Sequence of P450 3A4 (P08684 whole entry): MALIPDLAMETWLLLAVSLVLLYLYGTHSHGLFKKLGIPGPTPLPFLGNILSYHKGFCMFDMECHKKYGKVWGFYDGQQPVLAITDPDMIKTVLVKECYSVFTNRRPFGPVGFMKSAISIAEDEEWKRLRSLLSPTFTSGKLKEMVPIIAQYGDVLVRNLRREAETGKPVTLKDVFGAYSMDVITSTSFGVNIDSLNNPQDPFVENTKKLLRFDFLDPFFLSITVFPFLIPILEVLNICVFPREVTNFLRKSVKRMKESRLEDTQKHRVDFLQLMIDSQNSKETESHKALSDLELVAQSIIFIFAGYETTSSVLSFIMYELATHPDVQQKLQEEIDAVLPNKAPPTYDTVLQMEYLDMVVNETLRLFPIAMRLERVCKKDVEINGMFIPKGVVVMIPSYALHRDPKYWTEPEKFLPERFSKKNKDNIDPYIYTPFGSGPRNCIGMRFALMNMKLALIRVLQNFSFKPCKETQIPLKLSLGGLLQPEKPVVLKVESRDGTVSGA
The target in the next series is T3, P450 1B1 (Homo sapiens, UniProt Q16678).
T3 sequence (Q16678 1-543): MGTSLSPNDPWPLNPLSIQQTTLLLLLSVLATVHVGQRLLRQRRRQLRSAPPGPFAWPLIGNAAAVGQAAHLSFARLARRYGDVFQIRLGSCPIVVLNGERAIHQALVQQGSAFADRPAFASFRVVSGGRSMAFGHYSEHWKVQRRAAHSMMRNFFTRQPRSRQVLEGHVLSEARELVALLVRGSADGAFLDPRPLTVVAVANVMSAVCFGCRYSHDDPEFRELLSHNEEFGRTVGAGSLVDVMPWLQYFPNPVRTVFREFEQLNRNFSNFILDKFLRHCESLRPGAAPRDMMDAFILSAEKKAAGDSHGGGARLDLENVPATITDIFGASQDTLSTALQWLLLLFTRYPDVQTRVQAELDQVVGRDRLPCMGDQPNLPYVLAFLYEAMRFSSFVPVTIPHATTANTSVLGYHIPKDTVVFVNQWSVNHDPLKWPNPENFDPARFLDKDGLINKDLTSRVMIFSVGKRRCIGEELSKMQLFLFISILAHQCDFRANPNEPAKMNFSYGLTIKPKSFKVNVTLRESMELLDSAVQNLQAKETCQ
Briefly: Spectral binding titration with P450 1B1.

The target in series [3] is T4, P450 2A13 (Homo sapiens, UniProt Q16696).
T4 sequence (Q16696 1-494): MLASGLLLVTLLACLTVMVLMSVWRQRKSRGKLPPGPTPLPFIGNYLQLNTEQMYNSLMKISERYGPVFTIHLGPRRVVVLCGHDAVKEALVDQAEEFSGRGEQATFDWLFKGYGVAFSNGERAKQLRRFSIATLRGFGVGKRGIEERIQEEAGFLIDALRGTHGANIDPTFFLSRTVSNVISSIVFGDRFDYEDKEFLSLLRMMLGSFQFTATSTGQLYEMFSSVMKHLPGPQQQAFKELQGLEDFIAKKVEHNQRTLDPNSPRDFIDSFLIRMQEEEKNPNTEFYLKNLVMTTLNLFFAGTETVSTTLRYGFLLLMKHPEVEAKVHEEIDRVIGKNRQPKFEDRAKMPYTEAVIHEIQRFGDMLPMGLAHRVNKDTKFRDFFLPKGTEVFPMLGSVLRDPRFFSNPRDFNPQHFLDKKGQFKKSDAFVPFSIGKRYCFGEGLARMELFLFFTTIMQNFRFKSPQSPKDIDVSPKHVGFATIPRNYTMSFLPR
Nature of the series: Oxidation by P450 2A13. Particulars: 50 µM substrate, reconstituted system, LC-MS. The format is in vitro ADME.

Series [4] addresses T4, P450 2A13. Nature of the series: Spectral binding titration with P450 2A13.
For the next series, the system named is S. typhimurium NM2009. Nature of the series: Genotoxicity assay, induction of umu gene expression. The format is cell-based, Salmonella typhimurium. Particulars: for genotoxic activity (induction of umu gene expression): 0-160 µM, without P450; for cytotoxic activity: at concentrations of 80 and 160 µM, tester strain NM2009.
The target of series [5] is T4, P450 2A13. Particulars: cited from earlier work.
For series [6] the following is noted: non-classifiable as to carcinogenicity to humans; cited from earlier work.
The test system of series [7] is Salmonella typhimurium TA1537 and TA1538. Particulars: cited from earlier work.
Series [8] concerns P450 2A13. Particulars: cited from earlier work.
The next series deals with HepG2. Particulars: cited from earlier work.
For series [9], the system named is P450 2A6. Particulars: cited from earlier work.
The target in series [10] is T1, P450 2A6. Particulars: cited from earlier work.
Another series deals with S. typhimurium TA120. Particulars: photomutagenesis assay; cited from earlier work.
The next series relates to S. typhimurium TM677. Particulars: cited from earlier work.

Entries after “also recorded” stand apart in the source; their conditions may differ. Like-named read-outs stand apart in the source and are kept apart here.

On to `c1cc2c3c(cccc3c1)C1OC21` (centres unmarked) [1,2-epoxyacenaphthene, 1,2-Epoxyacenaphthene], for which the “further oxidation by P450 2A6” value at P450 2A6 [1] is recorded as “further oxidized”. The spectral changes result on P450 2C9, at P450 1A2 and at P450 1B1 was “did not show any spectral changes” in each case. In addition, the Kd on P450 2A6 [2] (Ks (spectral dissociation constant), P450 2A6, 1 µM P450, pH 7.4, ± SE) worked out at 1.78 ± 0.25 µM; at P450 3A4, 6.2 ± 0.87 µM; on P450 2A13 [4], 0.16 ± 0.03 µM. The binding spectra induced result on P450 2A6 [2] (P450 2A6), on P450 3A4 (P450 3A4) and on P450 2A13 [4] (P450 2A13) was “Type I” each time. In addition, the results for the “ΔAmax / Ks” value at P450 2A6 [2] (P450 2A6), on P450 3A4 (P450 3A4) and at P450 2A13 [4] (P450 2A13) were 0.035, 0.007 and 0.46, respectively. Also, the ΔAmax on P450 2A6 [2] (P450 2A6, ± SE) came out at 0.062 ± 0.002; at P450 3A4 (P450 3A4, ± SE), 0.041 ± 0.002; on P450 2A13 [4] (P450 2A13, ± SE), 0.073 ± 0.002. On P450 2A13 [3], the “further oxidation by P450 2A13” value is reported as “to a small extent”. In addition, the “Ks with P450 2A13 lower than with P450 2A6” value on P450 2A13 [4] (P450 2A13 vs P450 2A6) is ~ 10 fold. Also, the “genotoxic activity (induction of umu gene expression)” value (shortened to “genotoxic activity”) in the series with S. typhimurium NM2009 is “Neither these four PAHs induced umu gene expression; also recorded: none of these four chemicals showed any genotoxic activity”. Also, the cytotoxic activity in the series with S. typhimurium NM2009 is given as 10-20%. Besides, in the series with S. typhimurium NM2009, the “genotoxicity after metabolic activation with P450 2A6 and 2A13” value (from here on “genotoxicity after metabolic activation”) is reported as “negative results”.

For the compound `OC1Cc2cccc3cccc1c23` (centres unmarked) [1-acenaphthenol], the spectral changes result at P450 2C9, at P450 1A2 and at P450 1B1 was “did not show any spectral changes” throughout. In addition, the binding spectra induced result at P450 2A6 [2] (P450 2A6) was “very weak or undetectable”; at P450 3A4 (P450 3A4), “very weak or undetectable”; at P450 2A13 [4] (P450 2A13) it was “Type I”. Also, the results for the Kd at P450 3A4 and on P450 2A13 [4] were 7.8 ± 2.2 µM and 0.48 ± 0.03 µM, respectively. Further, the figures for the “ΔAmax / Ks” value on P450 3A4 (P450 3A4) and at P450 2A13 [4] (P450 2A13) were 0.002 and 0.13, respectively. In addition, the ΔAmax came to 0.013 ± 0.001 at P450 3A4 (P450 3A4, ± SE) and 0.061±0.001 at P450 2A13 [4] (P450 2A13, ± SE). The “genotoxic activity” value with S. typhimurium NM2009 is on record as “Neither these four PAHs induced umu gene expression; also recorded: none of these four chemicals showed any genotoxic activity”. Besides, the cytotoxic activity with S. typhimurium NM2009 is listed as 10-20%. Besides, in the series with S. typhimurium NM2009, the “genotoxicity after metabolic activation” value was “negative results”.

As to `c1cc2c3c(cccc3c1)CC2` [acenaphthene], the binding spectra induced result at P450 2A13 [5] (P450 2A13) and at P450 2A6 [10] (P450 2A6) was “Type I” each time. Besides, in series [6], the IARC category entry is “Group 3”. Also, the mutagenicity result in [7] (TA1537 and TA1538) is “non-mutagenic”. In addition, the “ΔAmax / Ks” value at P450 2A6 [2] (P450 2A6) turned out to be 0.055; at P450 3A4 (P450 3A4) it was 0.002; on P450 2A13 [4] (P450 2A13) it was 0.15. Besides, the ΔAmax at P450 2A6 [2] (P450 2A6, ± SE) came to 0.066±0.002; at P450 3A4 (P450 3A4, ± SE), 0.040±0.003; at P450 2A13 [4] (P450 2A13, ± SE), 0.074±0.005. Moreover, the “inhibition of coumarin 7-hydroxylation activity” value in the series with P450 2A13 [8] (P450 2A13) and in the series on P450 2A6 [9] (P450 2A6) was “inhibit” throughout. The cytotoxicity entry in the series with HepG2 (human liver tumor cell lines and HepG2 in vitro) is on record as “non-cytotoxic”. Moreover, the Kd on P450 3A4 was 19 ± 3.5 µM. The “genotoxic activity” value in the series on S. typhimurium NM2009 was “Neither these four PAHs induced umu gene expression”; with S. typhimurium NM2009 (listed as Acenaphthene), “none of these four chemicals showed any genotoxic activity”. Also, in the series on S. typhimurium NM2009, the cytotoxic activity is given as 10-20%. For the same compound, the “genotoxicity after metabolic activation” value in the series with S. typhimurium NM2009 is “negative results”. The photomutagenicity result in the series with S. typhimurium TA120 is listed as “weakly mutagenic”.

Take `C1=Cc2cccc3cccc1c23` [acenaphthylene]: the binding spectra induced entry on P450 2A13 [5] and on P450 2A6 [10] was “Type I” in each case. Moreover, the mutagenicity entry in series [7] is “non-mutagenic”; with S. typhimurium TM677, “mutagenic”. Moreover, the ΔAmax was 0.076±0.002 on P450 2A6 [2], 0.030±0.002 on P450 3A4 and 0.050±0.004 on P450 2A13 [4]. The “ΔAmax / Ks” value at P450 2A6 [2] (P450 2A6) turned out to be 0.017; on P450 3A4 (P450 3A4) it was 0.002; on P450 2A13 [4] (P450 2A13), 0.081. The “inhibition of coumarin 7-hydroxylation activity” value in the series on P450 2A13 [8] and in the series on P450 2A6 [9] was “inhibit” in each case. Besides, the cytotoxicity result in the series on HepG2 is reported as “non-cytotoxic”. The Kd on P450 3A4 is 13 ± 2.7 µM. Also, the “genotoxic activity” value in the series with S. typhimurium NM2009 is “Neither these four PAHs induced umu gene expression; also recorded: none of these four chemicals showed any genotoxic activity”. Also, in the series with S. typhimurium NM2009, the cytotoxic activity is 10-20%. Further, the “genotoxicity after metabolic activation” value with S. typhimurium NM2009 is given as “negative results”. For the same compound, in the series on S. typhimurium TA120, the photomutagenicity entry was “weakly mutagenic”.

`Oc1ccc2c(cc3ccc4cccc5ccc2c3c45)c1O` [benzo[a]pyrene-7,8-diol, reference compound]: the “umu gene expression after metabolic activation (positive control)” value in the series with S. typhimurium NM2009 (with P450 1B1, results not shown) is reported as “induced umu gene expression”.
